Measured values published in paper PMC7337386 (bioRxiv, 2020).
Entries after “also recorded” stand apart in the source; their conditions may differ.

Columns and labels:
[1] = cited from earlier work; for time of peak concentration: after oral administration
SARS-CoV-2 = conditions: single agent; cited from earlier work
[2] = tested on: SARS-CoV-2 (USA_WA1/2020); assay: SARS-CoV-2 viral cytopathic effect assay; format: cell-based; conditions: for interaction with nitazoxanide: in combination with nitazoxanide; for interaction with nitazoxanide / interaction with remdesivir: CPE assay; for interaction with remdesivir / interaction with remdesivir at high concentrations: in combination with remdesivir; for maximum rescue of CPE, drug alone: single agent
[3] = healthy adults; cited from earlier work

SMILES	time of peak concentration [1] [min]	interaction with nitazoxanide [2]	interaction with remdesivir [2]	interaction with remdesivir at high concentrations [2]	maximum rescue of CPE, drug alone [2]	further results
CCN(CC)Cc1cc(Nc2ccnc3cc(Cl)ccc23)ccc1O [Amodiaquine]	≤ 30	significant synergy; also recorded: notable synergism	strong antagonistic effect	synergize	40–60%	half-life [1]: ~ 3 hours; loss of potency in Calu-3 (TMPRSS2+) versus Vero E6 (SARS-CoV-2): > 10 fold
CCOC(=O)c1c(CSc2ccccc2)n(C)c2cc(Br)c(O)c(CN(C)C)c12 [Arbidol]				synergize		concentrations showing synergism with remdesivir [2]: 3 to 10 µM
OC(c1cc(C(F)(F)F)nc2c(C(F)(F)F)cccc12)C1CCCCN1 (centres unmarked) [Mefloquine]			strong antagonistic effect	synergize		
CC(=O)Oc1ccccc1C(=O)Nc1ncc([N+](=O)[O-])s1 [Nitazoxanide]					40–60%	tolerability [3]: well tolerated; toxicity (Vero E6 cells; 10 μM): ~ 20%; cytotoxicity (Vero E6 cells; concentration below 5 μM): not cytotoxic
CCC(CC)COC(=O)[C@H](C)N[P@](=O)(OC[C@H]1O[C@@](C#N)(c2ccc3c(N)ncnn23)[C@H](O)[C@@H]1O)Oc1ccccc1 [Remdesivir]		significant synergy; also recorded: notable synergism			40–60%	
CCNCc1cc(Nc2ccnc3cc(Cl)ccc23)ccc1O [monodesethyl-amodiaquine]	120					peak concentration ([1]; after oral administration of amodiaquine): ~ 500 nM; half-life in blood plasma [1]: 9 to 18 days
